Set-up in all cases: species or system Saccharomyces cerevisiae
A short description of assay [1]: Inhibition of yeast alpha-glucosidase using PNP glycoside as substrate preincubated for 30 mins followed by substrate addition measured for 60 secs by spectrophotometric analysis.
Assay [2] can be described thus: Non-competitive inhibition of yeast alpha-glucosidase using PNP glycoside as substrate assessed as enzyme-substrate-inhibitor complex preincubated for 30 mins followed by substrate addition measured for 60 secs by Lineweaver-Burk plot analysis.
A short description of assay [3]: Non-competitive inhibition of yeast alpha-glucosidase using PNP glycoside as substrate assessed as enzyme-inhibitor complex preincubated for 30 mins followed by substrate addition measured for 60 secs by Lineweaver-Burk plot analysis.

For orientation: IC50 means the concentration at which inhibition is half-maximal. Broadly, the Ki is the equilibrium dissociation constant of an inhibitor or competing ligand from its target.

In assay [1], `O=C(Oc1cc(O)c2c(=O)c3ccccc3oc2c1)c1ccccc1F` registered an IC50 of 31.6 µM. Turning to `O=C(Oc1cc(O)c2c(=O)c3ccccc3oc2c1)c1cccc(Br)c1`, it took 11.6 µM to reach half-maximal inhibition in assay [1] (IC50). The results for the Ki in assay [2] and in assay [3] were 17.4 µM and 18 µM, respectively.

Molecule `O=C(Oc1cc(O)c2c(=O)c3ccccc3oc2c1)c1ccccc1` gave an IC50 in assay [1] of 36.1 µM. Regarding `CC(C)(C)[Si](C)(C)Oc1ccc(C(=O)Oc2cc(O)c3c(=O)c4ccccc4oc3c2)cc1`, in assay [1], the half-inhibitory concentration (IC50) is 10.6 µM. The Ki worked out at 12.1 µM in assay [2] and 13.3 µM in assay [3]. Turning to `O=C(Oc1cc(O)c2c(=O)c3ccccc3oc2c1)c1cccnc1`, inhibition in assay [1] was half-maximal at 42.6 µM (IC50).

Molecule `O=C(Oc1cc(O)c2c(=O)c3ccccc3oc2c1)c1ccncc1` showed an IC50 in assay [1] of 23.7 µM.

`O=C(Oc1cc(O)c2c(=O)c3ccccc3oc2c1)c1ccc2ccccc2c1` showed an IC50 in assay [1] of 30.6 µM. Molecule `O=C(Oc1cc(O)c2c(=O)c3ccccc3oc2c1)c1ccc(O)cc1` displayed a half-inhibitory concentration (IC50) in assay [1] of 13.3 µM. Moreover, the values for the Ki in assay [2] and in assay [3] were 15.5 µM and 17.8 µM, respectively. As to `O=C(/C=C/c1ccccc1)Oc1cc(O)c2c(=O)c3ccccc3oc2c1`, half-maximal inhibition in assay [1] (IC50) required 46.7 µM. On to `COc1ccc(C(=O)Oc2cc(O)c3c(=O)c4ccccc4oc3c2)cc1`, for which half-maximal inhibition in assay [1] (IC50) required 23.2 µM. On the same count and under the same terms, as for `COc1cc(C(=O)Oc2cc(O)c3c(=O)c4ccccc4oc3c2)cc(OC)c1OC`, the figure is 58.2 µM; as for `O=C(Oc1cc(O)c2c(=O)c3ccccc3oc2c1)c1ccccn1`, 42 µM; as for `CNc1ccc(C(=O)Oc2cc(O)c3c(=O)c4ccccc4oc3c2)cc1`, 19.8 µM. `Cc1ccc(C(=O)Oc2cc(O)c3c(=O)c4ccccc4oc3c2)cc1` came in with an IC50 in assay [1] of 106 µM. The same measure, in the same setting: next, `O=C(Oc1cc(O)c2c(=O)c3ccccc3oc2c1)c1ccccc1Cl`: 21.8 µM; `O=C(Oc1cc(O)c2c(=O)c3ccccc3oc2c1)c1cccc2ccccc12`: 21.6 µM; `O=c1c2ccccc2oc2cc(O)cc(O)c12`: 145 µM. Same read-out and setting: as for `OC[C@H]1NC[C@H](O)[C@@H](O)[C@@H]1O` [DUVOGLUSTAT], the figure is 40 µM.

(Values after ChEMBL document CHEMBL3758145, “Synthesis of 3-acyloxyxanthone derivatives as α-glucosidase inhibitors: A further insight into the 3-substituents' effect” (Bioorg Med Chem, 2016).)
